Values after ≈ are worked out from the molar mass of the structure shown. Active and inactive are the calls of the source. No cut-off for these calls is given here.

One assay deals with E6SM. The assay is described as follows: Compound tested for cytotoxicity in human embryonic skin muscle E6SM cell cultures. Type of assay: functional.
Assay [1] deals with T1, Adenosylhomocysteinase (Homo sapiens, UniProt P23526). The assay is described as follows: Change in the S-Adenosyl-homocysteine hydrolase enzyme's NAD+ content until complete inactivation was determined.
Target sequence in this assay (P23526 2-432 limits assumed): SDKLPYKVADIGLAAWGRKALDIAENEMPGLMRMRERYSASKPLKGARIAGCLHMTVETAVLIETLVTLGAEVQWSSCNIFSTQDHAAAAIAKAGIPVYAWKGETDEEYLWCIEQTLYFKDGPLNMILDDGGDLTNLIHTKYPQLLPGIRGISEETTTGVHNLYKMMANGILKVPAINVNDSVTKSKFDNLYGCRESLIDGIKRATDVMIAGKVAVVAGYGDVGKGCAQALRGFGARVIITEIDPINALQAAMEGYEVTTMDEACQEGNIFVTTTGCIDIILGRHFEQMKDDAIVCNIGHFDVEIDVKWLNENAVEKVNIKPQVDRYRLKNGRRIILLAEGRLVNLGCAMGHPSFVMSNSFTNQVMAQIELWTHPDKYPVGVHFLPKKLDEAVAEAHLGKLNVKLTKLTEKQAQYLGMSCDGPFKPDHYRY
The target in assay [2] is T1, Adenosylhomocysteinase. Put plainly: Enzyme kinetic property: kinact value was determined.
Target sequence in this assay (P23526 2-432 limits assumed): as above
Assay [3] concerns the target T1, Adenosylhomocysteinase. The assay is described as follows: Binding affinity against S-Adenosyl-homocysteine hydrolase was determined.
Target sequence in this assay (P23526 whole entry): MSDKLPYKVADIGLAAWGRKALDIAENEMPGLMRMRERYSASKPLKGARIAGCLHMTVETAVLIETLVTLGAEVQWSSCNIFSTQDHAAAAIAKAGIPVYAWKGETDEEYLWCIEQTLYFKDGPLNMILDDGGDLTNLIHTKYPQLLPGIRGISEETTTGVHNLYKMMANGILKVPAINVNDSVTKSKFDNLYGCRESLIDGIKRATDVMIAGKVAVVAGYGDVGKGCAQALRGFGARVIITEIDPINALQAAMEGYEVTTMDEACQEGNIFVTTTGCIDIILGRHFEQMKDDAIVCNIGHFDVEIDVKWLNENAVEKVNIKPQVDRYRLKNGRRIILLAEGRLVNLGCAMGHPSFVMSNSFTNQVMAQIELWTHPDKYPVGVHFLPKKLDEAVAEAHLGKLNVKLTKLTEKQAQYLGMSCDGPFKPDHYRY
The next assay deals with Sindbis virus. The assay is described as follows: Antiviral activity against Sindbis; No activity. The format is functional, organism-based.
The test system of the next assay is Human respirovirus 3. Put plainly: Antiviral activity against Parainfluenza-3; No activity. The format is functional, organism-based.
Another assay has as its system Junin virus. Put plainly: Activity against Junin virus was determined. The format is functional. The following applies: Mammarenavirus juninense.
For assay [4], the system named is HEL. Put plainly: Antiviral activity against Cytomegalovirus virus (CMV) strain AD-169 in HEL cells; No specific activity. Type of assay: functional, cell-based. The note with it: Homo sapiens.
The next assay relates to Coxsackievirus B4. Put plainly: Antiviral activity against Coxsackie B4 virus; No activity. The format is functional, organism-based.
A further assay concerns Punta Toro virus. Put plainly: Antiviral activity against Punta Toro virus; No activity. The format is functional, organism-based.
Assay [5] deals with HEL. The assay is described as follows: Antiviral activity against Cytomegalovirus virus (CMV) strain Davis in HEL cells; No specific activity. Type of assay: functional, cell-based. The following applies: Homo sapiens.
The next assay relates to Vero. Put plainly: Compound tested for cytotoxicity in vero cell culture was determined. Type of assay: functional, Chlorocebus sabaeus.
In a further assay the test system is Tacaribe virus. Put plainly: Activity against Taccaribe virus was determined. The following applies: Mammarenavirus tacaribeense. Type of assay: functional.

Consider `N#CSC[C@H]1OC(n2cnc3c(N)ncnc32)[C@H](O)[C@@H]1O` (stereo partly specified), for which, in the assay with E6SM, the MTC was greater than 650 µM. This compound showed an NAD at Adenosylhomocysteinase [1] of 16%. Moreover, at Adenosylhomocysteinase [2], the K inact was determined as 0.59 min⁻¹. On Adenosylhomocysteinase [3], the affinity, expressed as Ki, was 67 µM.

On to `C#CSC[C@H]1OC(n2cnc3c(N)ncnc32)[C@H](O)[C@@H]1O` (stereo partly specified), for which the MTC in the assay with E6SM came out at 30 µM. On Adenosylhomocysteinase [1], this compound registered an NAD of 36%. In addition, at Adenosylhomocysteinase [2], the K inact stood at 0.12 min⁻¹. The Ki (usually the equilibrium dissociation constant of an inhibitor or competing ligand from its target) on Adenosylhomocysteinase [3] is 10 µM.

Consider `C=CSC[C@H]1OC(n2cnc3c(N)ncnc32)[C@H](O)[C@@H]1O` (stereo partly specified), for which the MIC result with Sindbis virus, in the assay on Human respirovirus 3, with HEL [4], with Coxsackievirus B4, with Punta Toro virus and in the assay with HEL [5] was “inactive” throughout. For the same compound, the MTC in the assay with E6SM and with Vero was greater than 650 µM each time. This compound also came in with an NAD at Adenosylhomocysteinase [1] of 18%. For the same compound, the MIC against Junin virus amounted to 65 µM (≈ 20.1 µg/mL); in the assay with Tacaribe virus, 40 µM (≈ 12.4 µg/mL). Besides, the K inact at Adenosylhomocysteinase [2] turned out to be 0.07 min⁻¹. For the same compound, on Adenosylhomocysteinase [3], the inhibitory constant (Ki) turned out to be 4 µM.

Source of the values: ChEMBL document CHEMBL1136374, “Inactivation of S-adenosyl-L-homocysteine hydrolase with novel 5'-thioadenosine derivatives. Antiviral effects” (Bioorg Med Chem Lett, 2003).
